Source: ChEMBL document CHEMBL2439965, “Dialkylimidazole inhibitors of Trypanosoma cruzi sterol 14α-demethylase as anti-Chagas disease agents” (Bioorg Med Chem Lett, 2013)
Each block holds one molecule with its values, some of them ahead of it.

Legend:
[1] = Cytotoxicity against human CRL8155 cells; format: cell-based
[2] = system: Trypanosoma cruzi; assay: microbe, parasite or virus in culture; settings: Tulahuen, NIH3T3, 168 h
Description: Antitrypanosomal activity against Trypanosoma cruzi Tulahuen infected in 3T3 cells after 7 days by beta-galactosidase assay

[3] = physchem; settings: octanol/water
Description: Lipophilicity, log P of the compound

Compound: Nc1ccc(-c2cc(NCc3cncn3Cc3ccc(-c4ccccc4)cc3)ccc2-c2nc3ccccc3s2)cc1
IC50 [1]: 27500 nM
EC50 [2]: 1.6 nM
logP [3]: 7.6

Compound: Oc1cc(-c2ccccc2)ccc1Cn1cncc1CNc1ccc(Cl)c(-c2ccccc2)c1
IC50 [1]: 21500 nM
EC50 [2]: 5.9 nM
logP [3]: 6.5

Compound: Nc1cc(-c2ccccc2)ccc1Cn1cncc1CNc1ccc(F)c(-c2c(F)cccc2F)c1
EC50 [2]: 0.4 nM
logP [3]: 5.8

Compound: CC[C@@H]([C@H](C)O)n1ncn(-c2ccc(N3CCN(c4ccc(OC[C@@H]5CO[C@@](Cn6cncn6)(c6ccc(F)cc6F)C5)cc4)CC3)cc2)c1=O [POSACONAZOLE]
EC50 [2]: < 1 nM

Compound: Clc1ccc(NCc2cncn2Cc2ccc(-c3ccccc3)cc2)cc1-c1ccncc1
EC50 [2]: 27.2 nM
logP [3]: 5.6

Compound: CC1CCN(CCOc2ccc(NCc3cncn3Cc3ccc(-c4ccccn4)cc3N)cc2-c2ccccc2)CC1
IC50 [1]: 5270 nM
EC50 [2]: 5.8 nM
logP [3]: 5.1

Compound: Oc1cc(-c2ccccc2)ccc1Cn1cncc1CNc1ccc(-c2nc3ccccc3s2)c(-c2ccccc2)c1
EC50 [2]: 89.3 nM
logP [3]: 8

Compound: c1ccc(-c2cc(NCc3cncn3Cc3ccc(-c4ccco4)cc3)ccc2-c2nc3ccccc3s2)cc1
EC50 [2]: 21.2 nM
logP [3]: 7.4

Compound: Oc1ccccc1-c1ccc(Cn2cncc2CNc2ccc(-c3nc4ccccc4s3)c(-c3ccccc3)c2)cc1
EC50 [2]: 123 nM
logP [3]: 8.1

Compound: Clc1ccc(NCc2cncn2Cc2ccc(-c3ccccc3)cc2Cl)cc1
EC50 [2]: 83.2 nM
logP [3]: 5.7

Compound: c1ccc(-c2ccc(Cn3cncc3CNc3ccc(-c4nc5ccccc5s4)c(-c4ccccc4)c3)cc2)cc1
EC50 [2]: 20 nM
logP [3]: 8.4

Compound: Clc1ccc(NCc2cncn2Cc2cccc3cc[nH]c23)cc1-c1ccccc1
EC50 [2]: 333 nM
logP [3]: 5.2

Compound: c1ccc(-c2cc(NCc3cncn3Cc3ccc(-c4ccccn4)cc3)ccc2-c2nc3ccccc3s2)cc1
EC50 [2]: 19.3 nM
logP [3]: 7.5

Compound: COc1cc(-c2ccccc2)ccc1Cn1cncc1CNc1ccc(-c2nc3ccccc3s2)c(-c2ccccc2)c1
EC50 [2]: 27.2 nM
logP [3]: 8.2

Compound: c1ccc(-c2cc(NCc3cncn3Cc3ccc(-c4cccs4)cc3)ccc2-c2nc3ccccc3s2)cc1
EC50 [2]: 11.1 nM
logP [3]: 8.2

Compound: Nc1cc(-c2ccccc2)ccc1Cn1cncc1CNc1ccc(Cl)c(Cl)c1
EC50 [2]: 9 nM
logP [3]: 5

Compound: Fc1cc(-c2ccccc2)ccc1Cn1cncc1CNc1ccc(F)c(-c2ccccc2)c1
EC50 [2]: 12 nM
logP [3]: 6.5

Compound: COc1cc(-c2ccccc2)ccc1Cn1cncc1CNc1ccc(Cl)c(-c2ccccc2)c1
EC50 [2]: 35.1 nM
logP [3]: 6.6

Compound: Cc1cc(NCc2cncn2Cc2ccc(-c3ccccc3)cc2Cl)ccc1F
EC50 [2]: 26 nM
logP [3]: 5.8

Compound: Fc1ccc(NCc2cncn2Cc2ccc(F)cc2F)cc1
EC50 [2]: 354 nM
logP [3]: 3.3

Compound: Cc1ccc(NCc2cncn2Cc2ccc(-c3ccccc3)cc2)cc1-c1c(F)cccc1F
EC50 [2]: 36.6 nM
logP [3]: 7

Compound: Cc1cc(NCc2cncn2Cc2ccc(F)cc2F)ccc1F
EC50 [2]: 272 nM
logP [3]: 3.8

Compound: Nc1cc(-c2ccccc2)ccc1Cn1cncc1CNc1ccc(Cl)cc1
EC50 [2]: 2.1 nM
logP [3]: 4.3

Compound: Nc1ccccc1-c1ccc(Cn2cncc2CNc2ccc(-c3nc4ccccc4s3)c(-c3ccccc3)c2)cc1
EC50 [2]: 75.4 nM
logP [3]: 7.6

Compound: Clc1ccc(NCc2cncn2Cc2ccc(-c3ccccc3)cc2)cc1N1CCCCC1
EC50 [2]: 53.6 nM
logP [3]: 6.1

Compound: Nc1ccccc1Cn1cncc1CNc1ccc(F)c(-c2ccccc2)c1
EC50 [2]: 233 nM
logP [3]: 3.8

Compound: Cc1ncc(CNc2ccc(F)c(Cl)c2)n1Cc1ccc(-c2ccccc2)cc1N
EC50 [2]: > 1000 nM
logP [3]: 4.6

Compound: COc1ccc(NCc2cncn2Cc2ccc(-c3ccccc3)cc2)nc1-c1ccccc1
EC50 [2]: 12.5 nM
logP [3]: 5.8

Compound: Cc1ncc(CNc2ccc(F)cc2)n1Cc1ccc(-c2ccccc2)cc1N
EC50 [2]: > 1000 nM
logP [3]: 4

Compound: Fc1ccc(NCc2cncn2Cc2ccc(-c3ccccc3)cc2F)cc1Cl
EC50 [2]: 49 nM
logP [3]: 5.4

Compound: Clc1ccc(NCc2cncn2CC2CCNCC2)cc1-c1ccccc1
EC50 [2]: > 1000 nM
logP [3]: 3.5

Compound: Cc1ncc(CNc2ccc(F)c(F)c2)n1Cc1ccc(-c2ccccc2)cc1N
EC50 [2]: > 1000 nM
logP [3]: 4.1

Compound: Fc1ccc(NCc2cncn2Cc2ccc(-c3ccccc3)cc2Cl)cc1F
EC50 [2]: 38.1 nM
logP [3]: 5.4

Compound: c1ccc(-c2ccc(Cn3cncc3CNc3ccc(OCCN4CCOCC4)c(-c4ccccc4)c3)cc2)cc1
EC50 [2]: 35.2 nM
logP [3]: 5.9

Compound: Nc1cc(-c2ccccc2)ccc1Cn1cncc1CNc1ccc(Cl)c(-c2ccccc2N2CCCC2)c1
EC50 [2]: 87 nM
logP [3]: 6.5

Compound: Fc1ccc(NCc2cncn2Cc2ccc(-c3ccccc3)cc2Cl)cc1Cl
EC50 [2]: 48.7 nM
logP [3]: 5.9

Compound: Cc1cc(NCc2cnc(C)n2Cc2ccc(-c3ccccc3)cc2N)ccc1F
EC50 [2]: > 1000 nM
logP [3]: 4.5

Compound: Nc1cc(-c2ccccc2)ccc1Cn1cncc1CNc1ccc(Cl)c(-n2cccc2)c1
EC50 [2]: 3.8 nM
logP [3]: 4.8

Compound: N#Cc1ccc(-c2cc(NCc3cncn3Cc3ccc(-c4ccccc4)cc3)ccc2-c2nc3ccccc3s2)cc1
EC50 [2]: 32 nM
logP [3]: 8.2

Compound: Cc1cccc(-c2ccc(Cn3cncc3CNc3ccc(-c4nc5ccccc5s4)c(-c4ccccc4)c3)cc2)c1
EC50 [2]: 5.4 nM
logP [3]: 8.9

Compound: Cc1ccc(-c2ccc(Cn3cncc3CNc3ccc(-c4nc5ccccc5s4)c(-c4ccccc4)c3)cc2)cc1
EC50 [2]: 50 nM
logP [3]: 8.9

Compound: O=C(O)c1cc(-c2ccccc2)ccc1Cn1cncc1CNc1ccc(-c2nc3ccccc3s2)c(-c2ccccc2)c1
EC50 [2]: > 1000 nM
logP [3]: 7.2

Compound: Nc1cc(-c2ccccc2)ccc1Cn1cncc1CNc1ccc(F)c(F)c1
EC50 [2]: 3.2 nM
logP [3]: 4

Compound: Nc1cc(Cl)ccc1Cn1cncc1CNc1ccc(F)c(-c2ccccc2)c1
EC50 [2]: 12.8 nM
logP [3]: 4.5

Compound: Fc1ccc(NCc2cncn2Cc2ccc(-c3ccccc3)cc2F)cc1
EC50 [2]: 70.2 nM
logP [3]: 4.8

Now from value to molecule:

EC50 [2]: 1.1 nM
logP [3]: 3.8
Compound: Nc1cc(-c2ccccc2)ccc1Cn1cncc1CNc1ccc(F)cc1

EC50 [2]: 24.5 nM
logP [3]: 5.9
Compound: Nc1cc(-c2ccccc2)ccc1Cn1cncc1CNc1ccc(Cl)c(-c2ccccc2N2CCOCC2)c1

EC50 [2]: 1.5 nM
Compound: Nc1cc(-c2ccccc2)ccc1Cn1cncc1CNc1ccc(OCCN2CCOCC2)c(-c2ccc(Cl)cc2)c1

EC50 [2]: 317 nM
logP [3]: 6.9
Compound: c1ccc(-c2ccc(Cn3cncc3CNc3ccc(OCCN4CCCCC4)c(-c4ccccc4)c3)cc2)cc1

EC50 [2]: 686 nM
logP [3]: 4.2
Compound: COc1ccc(NCc2cncn2Cc2ccccc2)nc1-c1ccccc1

EC50 [2]: 10 nM
logP [3]: 8.2
Compound: COc1ccc(-c2cc(NCc3cncn3Cc3ccc(-c4ccccc4)cc3)ccc2-c2nc3ccccc3s2)cc1

EC50 [2]: 358 nM
logP [3]: 2.2
Compound: Nc1cc(N2CCOCC2)ccc1Cn1cncc1CNc1ccc(F)c(F)c1

EC50 [2]: 53 nM
logP [3]: 5.3
Compound: Cc1cc(NCc2cncn2Cc2ccc(-c3ccccc3)cc2F)ccc1F

EC50 [2]: 1 nM
logP [3]: 7.6
Compound: Nc1cc(-c2ccccc2)ccc1Cn1cncc1CNc1ccc(-c2nc3ccccc3s2)c(-c2ccccc2)c1

EC50 [2]: 30.4 nM
logP [3]: 5.6
Compound: Clc1ccc(NCc2cncn2Cc2ccc(-c3ccccc3)cc2)cc1-n1cccc1

EC50 [2]: 212 nM
logP [3]: 3.5
Compound: Fc1ccc(Cn2cncc2CNc2ccc(F)c(F)c2)c(F)c1

EC50 [2]: 14.5 nM
logP [3]: 4.7
Compound: COc1ccc(Cn2cncc2CNc2ccc(F)c(-c3ccccc3)c2)c(N)c1

EC50 [2]: 64.8 nM
logP [3]: 5.6
Compound: Clc1ccc(NCc2cncn2Cc2ccc(-c3ccccc3)cc2)cc1-c1cccnc1

EC50 [2]: 48.5 nM
logP [3]: 9
Compound: Clc1ccc(-c2ccc(Cn3cncc3CNc3ccc(-c4nc5ccccc5s4)c(-c4ccccc4)c3)cc2)cc1

EC50 [2]: 46 nM
logP [3]: 5
Compound: Fc1ccc(NCc2cncn2Cc2ccc(-c3ccccc3)cc2F)cc1F

EC50 [2]: 1.4 nM
Compound: Nc1cc(Cl)ccc1Cn1cncc1CNc1ccc(-c2nc3ccccc3s2)c(-c2ccccc2)c1

EC50 [2]: 115 nM
logP [3]: 5.9
Compound: c1ccc(-c2ccc(Cn3cncc3CNc3ccc(NCCN4CCOCC4)c(-c4ccccc4)c3)cc2)cc1

EC50 [2]: 1.2 nM
logP [3]: 4.3
Compound: Nc1cc(-c2ccccc2)ccc1Cn1cncc1CNc1ccc(F)c(Cl)c1

EC50 [2]: 333 nM
logP [3]: 4.8
Compound: Fc1ccc(NCc2cncn2Cc2cccc3cc[nH]c23)cc1-c1ccccc1

EC50 [2]: 20.8 nM
logP [3]: 4.7
Compound: Nc1cc(-c2ccccc2)ccc1Cn1cncc1CNc1ccc(Cl)c(-c2ccccc2N2CCCCC2)c1
